Measurements published in patent US9296741B2, “Bromodomain inhibitors” (priority 2012, dated 2016).
Where two headings read alike, the source gives them in different places. Marks after values point to notes of the source that are not given here.

Key:
[1] = target: human BRD4 first bromodomain (BDI_K57-E168) (Homo sapiens (Human), UniProt O60885); assay: TR-FRET bromodomain binding assay, BRD4 first bromodomain
[2] = system: breast cancer cell line MX-1; assay: MX-1 cell line proliferation assay; type: cell-based, human; settings: Homo sapiens, MX1, 72 h; MX-1 cells, 3-day proliferation, Cell Titer Glo; read-out: Cellular proliferation: EC50
[3] = Human liver microsome stability assay; type: in vitro ADME; settings: both sexes, human, microsomes, pH 7.4
[4] = Rat liver microsome stability assay; type: in vitro ADME; settings: rat liver microsomes (male Sprague-Dawley), 0.5 μM test compound, 0.25 mg/mL microsomal protein, pH 7.4, 37° C.; read-out: Stability in rat liver microsomes (t1/2 in minutes)
[5] = Mouse liver microsome stability assay; type: in vitro ADME; settings: male, CD1, mouse, microsomes, pH 7.4
[6] = system: LPS induced IL-6 production; assay: LPS (lipopolysaccharide) induced IL-6 production mouse assay; type: in vivo; settings: Mus musculus, read-out: Inhibition of LPS induced IL-6 production in Mice, % inhibition at 3 mg/kg; 3 mg/kg oral, 1 h before LPS; serum IL-6 2 h after LPS
[7] = system: MX-1 human breast cancer xenograft tumors; assay: Xenograft tumor growth inhibition assay, MX-1; type: in vivo, mouse
[8] = system: HT1080 human cancer cell xenograft; assay: Xenograft efficacy study, HT1080; type: in vivo, mouse; settings: PO, QDx14, vehicle H
[9] = system: MV4-11 human cancer cell xenograft; assay: Xenograft efficacy study, MV4-11; type: in vivo, mouse; settings: PO, QDx21, vehicle D
[10] = system: SKM1 human cancer cell xenograft; assay: Xenograft efficacy study, SKM1; type: in vivo, mouse; settings: PO, QDx21, vehicle A
[11] = system: rat collagen induced arthritis (rCIA) paw swelling
[12] = system: OPM-2 human multiple myeloma xenograft tumors; assay: animal or person; settings: Mus musculus; for change in vivo at 0.5 mg/kg / inhibition in vivo at 0.5 mg/kg: 0.5 mg/kg/day; for change in vivo at 1 mg/kg / inhibition in vivo at 1 mg/kg: 1 mg/kg/day
[13] = system: rat collagen induced arthritis (rCIA) paw swelling; assay: animal or person; settings: po, read-out: ED50, inhibition of inflammation in the arthritic paw
[14] = MX-1, 0.3 mg/kg/day, PO, QD, vehicle F
[15] = MX-1, 1 mg/kg/day, PO, QD, vehicle F
[16] = MX-1, 3 mg/kg/day, PO, QD, vehicle F
[17] = OPM-2, po, read-out: % TGI (tumor growth inhibition), OPM-2, PO, QDx21, vehicle A

CCS(=O)(=O)Nc1ccc(Oc2ccc(F)cc2F)c(-c2cn(C)c(=O)c3[nH]ccc23)c1 [Example 36, N-[4-(2,4-difluorophenoxy)-3-(6-methyl-7-oxo-6,7-dihydro-1H-pyrrolo[2,3-c]pyridin-4-yl)phenyl]ethanesulfonamide]
Ki [1]: 3.5 nM | EC50 [2]: 17.4 nM | half-life at 0.5 μM [3]: > 2 h | half-life at 0.5 μM [4]: > 2 h | half-life at 0.5 μM [5]: 0.683 h | inhibition in vivo at 3 mg/kg [6]: 78% | % TGD (tumor growth delay) [7, 14]: 40% | % TGI (tumor growth inhibition) [7, 14]: 43** % | % removed from study [7, 14]: 0% | % TGI (tumor growth inhibition) [7, 15]: 60*** % | % removed from study [7, 15]: 0% | % TGI (tumor growth inhibition) [7, 16]: 76*** % | % removed from study [7, 16]: 0% | % TGI (tumor growth inhibition) ([7]; MX-1 xenograft, 0.3 mg/kg/day PO, QDx14, based on day 27): 43** % | % TGI (tumor growth inhibition) ([7]; MX-1 xenograft, 1 mg/kg/day PO, QDx14, based on day 27): 60*** % | % TGI (tumor growth inhibition) ([7]; MX-1 xenograft, 3 mg/kg/day PO, QDx14, based on day 27): 76*** % | % TGD (tumor growth delay) ([8]; 0.3 mg/kg/day): −1% | % TGI (tumor growth inhibition) ([8]; 0.3 mg/kg/day): 26% | % removed from study ([8]; 0.3 mg/kg/day): 30% | % TGD (tumor growth delay) ([8]; 1 mg/kg/day): 3% | % TGI (tumor growth inhibition) ([8]; 1 mg/kg/day): 41* % | % removed from study ([8]; 1 mg/kg/day): 10% | % TGD (tumor growth delay) ([8]; 3 mg/kg/day): 46*** % | % TGI (tumor growth inhibition) ([8]; 3 mg/kg/day): 47** % | % removed from study ([8]; 3 mg/kg/day): 10% | % TGD (tumor growth delay) ([9]; 0.2 mg/kg/day): 16*** % | % TGI (tumor growth inhibition) ([9]; 0.2 mg/kg/day): 22* % | % removed from study ([9]; 0.2 mg/kg/day): 0% | % TGD (tumor growth delay) ([9]; 2 mg/kg/day): 94* % | % TGI (tumor growth inhibition) ([9]; 2 mg/kg/day): 81*** % | % removed from study ([9]; 2 mg/kg/day): 0% | % TGD (tumor growth delay) ([10]; 0.2 mg/kg/day): 93% | % TGI (tumor growth inhibition) ([10]; 0.2 mg/kg/day): 41* % | % removed from study ([10]; 0.2 mg/kg/day): 0% | % TGD (tumor growth delay) ([10]; 2 mg/kg/day): 721*** % | % TGI (tumor growth inhibition) ([10]; 2 mg/kg/day): 86** % | % removed from study ([10]; 2 mg/kg/day): 0% | maximum plasma concentration at the ED50 ([11]; female, Lewis, rat, in vivo): 0.0068 µg/mL | maximum plasma concentration at the ED80 ([11]; female, Lewis, rat, in vivo): 0.0223 µg/mL | AUC of Paw Swelling, MEAN ([11]; rCIA, dosed at 0.03 mg/kg orally once daily day 10-17): 4.19 mL·days | AUC of Paw Swelling, MEAN ([11]; rCIA, dosed at 0.1 mg/kg orally once daily day 10-17): 3.66* ml-day | AUC of Paw Swelling, MEAN ([11]; rCIA, dosed at 0.3 mg/kg orally once daily day 10-17): 1.84** ml-day | AUC of Paw Swelling, MEAN ([11]; rCIA, dosed at 1.0 mg/kg orally once daily day 10-17): 0.70** ml-day | ED80, inhibition of inflammation in the arthritic paw ([11]; rCIA, oral once daily): 0.69 mg/kg | change in vivo at 0.5 mg/kg ([12]; OPM-2, ip, read-out: % TGD (tumor growth delay), OPM-2, IP, QDx21, vehicle F): 52% | change in vivo at 1 mg/kg ([12]; OPM-2, ip, read-out: % TGD (tumor growth delay), OPM-2, IP, Q4DX3, vehicle F): 80% | inhibition in vivo at 0.5 mg/kg ([12]; OPM-2, ip, read-out: % TGI (tumor growth inhibition), OPM-2, IP, QDx21, vehicle F): 49% | inhibition in vivo at 1 mg/kg ([12]; OPM-2, ip, read-out: % TGI (tumor growth inhibition), OPM-2, IP, Q4DX3, vehicle F): 61% | inhibition in vivo at 1 mg/kg ([12]; OPM-2, iv, read-out: % TGI (tumor growth inhibition), OPM-2, IV, Q4Dx3, vehicle C): 69% | inhibition in vivo at 3 mg/kg ([12]; OPM-2, po, 744 h, read-out: % TGI (tumor growth inhibition), OPM-2 xenograft, 3 mg/kg/day PO, QDx14, based on day 31): 90% | change in vivo at 0.5 mg/kg ([12]; OPM-2, po, read-out: % TGD (tumor growth delay), OPM-2, PO, QDx21, vehicle A): 101% | change in vivo at 1 mg/kg ([12]; OPM-2, po, read-out: % TGD (tumor growth delay), OPM-2, PO, BIDx21, vehicle A): 140% | change in vivo at 3 mg/kg ([12]; OPM-2, po, read-out: % TGD (tumor growth delay), OPM-2, 3 mg/kg/day, PO, QDx14, vehicle A): 21% | change in vivo at 3 mg/kg ([12]; OPM-2, po, read-out: % TGD (tumor growth delay), OPM-2, 3 mg/kg/day, PO, QDx21, vehicle A): 131% | change in vivo at 6 mg/kg ([12]; OPM-2, po, read-out: % TGD (tumor growth delay), OPM-2, 6 mg/kg/day, PO, Q2D x21 d, vehicle A): 84% | change in vivo at 7 mg/kg ([12]; OPM-2, po, read-out: % TGD (tumor growth delay), OPM-2, 7 mg/kg/day, PO, QD(3 on 4 off)x3, vehicle A): 97% | change in vivo at 10.5 mg/kg ([12]; OPM-2, po, read-out: % TGD (tumor growth delay), OPM-2, 10.5 mg/kg/day, PO, QD(2 on 5 off)x3, vehicle A): 94% | change in vivo at 3 mg/kg ([12]; OPM-2, po, read-out: % TGD (tumor growth delay), OPM-2 xenograft, 3 mg/kg/day PO, QDx14, endpoint of 1000 mm^3): 78% | inhibition in vivo at 0.5 mg/kg [12, 17]: 75% | inhibition in vivo at 1 mg/kg ([12]; OPM-2, po, read-out: % TGI (tumor growth inhibition), OPM-2, PO, BIDx21, vehicle A): 74% | inhibition in vivo at 1 mg/kg [12, 17]: 75% | inhibition in vivo at 3 mg/kg ([12]; OPM-2, po, read-out: % TGI (tumor growth inhibition), OPM-2, 3 mg/kg/day, PO, QDx14, vehicle A): 90% | inhibition in vivo at 3 mg/kg ([12]; OPM-2, po, read-out: % TGI (tumor growth inhibition), OPM-2, 3 mg/kg/day, PO, QDx21, vehicle A): 88% | inhibition in vivo at 6 mg/kg ([12]; OPM-2, po, read-out: % TGI (tumor growth inhibition), OPM-2, 6 mg/kg/day, PO, Q2D x21 d, vehicle A): 82% | inhibition in vivo at 7 mg/kg ([12]; OPM-2, po, read-out: % TGI (tumor growth inhibition), OPM-2, 7 mg/kg/day, PO, QD(3 on 4 off)x3, vehicle A): 81% | inhibition in vivo at 10.5 mg/kg ([12]; OPM-2, po, read-out: % TGI (tumor growth inhibition), OPM-2, 10.5 mg/kg/day, PO, QD(2 on 5 off)x3, vehicle A): 75% | ED50 [13]: 0.21 mg/kg
